Results taken from a melting point compilation (Tetko et al.; mined from patent text by program, amines drawn as free bases though some values may be those of a salt).

| Compound | melting point |
| --- | --- |
| COc1cc(C=CC(=O)Nc2cnc3c(C)cc(C)cc3c2-c2ccccc2Cl)ccc1OC(C)=O | 174 to 175 °C |
| NC(=O)ON(Cc1ccccc1)Cc1ccccc1 | 127 to 129 °C |
| COC(=O)c1cc(C(=O)N2CCC(C(N)=O)CC2)c2cc(Cc3ccc(F)cc3)cnc2c1O | 235 to 238 °C |
| CN(c1nc(N)no1)c1c(Cl)cccc1Cl | 177 to 178 °C |
| COC1(NC(=O)OCc2ccccc2)CNC1=O (centres undefined) | 112 to 114 °C |
| Cn1nc(-c2cc(C=O)c(Cl)cc2Cl)c(Cl)c1OC(F)F | 138 °C |
| Nc1ncc(Cl)nc1Br | 102 to 105 °C |
| COC(=O)Cc1ccc(OCCNC(=O)C2Cc3ccccc3N2S(=O)(=O)c2ccc(-c3cc(C(F)(F)F)ccc3C)cc2)cc1 (centres undefined) | 46 to 49 °C |
| Cc1cccc2c(=O)n([C@H](C)[C@](O)(Cn3cncn3)c3ccc(F)cc3F)cnc12 | 141 to 144 °C |
| N=C(N)c1ccc(N2CCN(c3ccc(CCC(=O)O)cc3)S2(=O)=O)cc1 | > 275 °C |
| NS(=O)(=O)c1cccc(C=NO)c1 | 107 to 108 °C |
| CCOC(=O)CC(=O)CC(O)C=Cc1c(C)c(OCc2ccccc2)c(C)c2c1OC(C)(C)CC2 (centres undefined) | 83 to 83.5 °C |
| Cc1oc(-c2ccccc2)nc1Cc1cc2cc(C#N)ccc2o1 | 139 to 140 °C |
| CC(C)(C)c1cc(C(c2ccc(C#N)cc2)N2CCCCC2)c(O)c(C(C)(C)C)c1 (centres undefined) | 165 to 166 °C |
| C=CCC12CCC(=O)C1(C)CCC1c3ccc(OC)cc3CCC12 (centres undefined) | 75 to 77 °C |
| CCCCCCCCCCC[C@H](CC(=O)N[C@H](CO)C(=O)OCc1ccccc1)OC(=O)CCCCCCCCC | 51 to 52 °C |
| O=C(c1ccccc1)c1cc(Cl)ccc1OCCCl | 73 to 74.5 °C |
| N#Cc1cccc(S(=O)(=O)N2CCn3c(c(C(N)=O)c(Cl)c3-c3ccccc3)C2)c1 | 243 to 245 °C |
| COc1ccc(S(=O)(=O)Nc2nc(-c3cccc([N+](=O)[O-])c3)cs2)cc1OC | 185 °C |
| COc1ccc(NN=C(Sc2ccc(CF)cc2)C(C)=O)cc1 | 103 to 104 °C |
| CC(C)OC(=O)N1CCC(c2nc3cc(-c4ccc(C(N)=O)cc4F)ccc3o2)CC1 | 194 to 197 °C |
| O=[N+]([O-])c1ccccc1-c1ccc(Br)cc1[N+](=O)[O-] | 145 to 147 °C |
| OCCn1cc(-c2ccc3nnn(Cc4ccc(F)cc4)c3n2)cn1 | 204 to 206 °C |
| C=CCc1cc(C)cc(C(Nc2ccc(C(=N)N)cc2)C(=O)O)c1OCCO (racemic) | 228 °C |
| CCN1C(=O)NC(=O)C1O (centres undefined) | 119 to 120 °C |

| Compound | melting point |
| --- | --- |
| COc1ccc(C2=NN(c3ccc(NS(=O)(=O)c4ccc(C)cc4)cc3)C(=O)[C@H]3CC=CC[C@@H]23)cc1OC (relative stereo) | 229 to 230 °C |
| COC(=O)c1cc(Cl)cc(CC=O)c1O | 49 to 59 °C |
| CN1C(=O)c2ccccc2CC1C(=O)NC(Cc1c[nH]cn1)C(=O)N1CCCC1C(N)=O (centres undefined) | 140 to 145 °C |
| CC(=O)Nc1ccccc1SCc1ncon1 | 89 °C |
| O=C(c1c[nH]c(C(=O)CCl)c1)c1ccc2ccccc2c1 | 175 to 177 °C |
| O=C(O)c1cnn2c(C(F)F)cc(-c3ccc(C(F)(F)F)cc3)nc12 | 261 °C |
| O=C1NCCc2c1c1ccccc1n2COCc1ccccc1 | 133 to 135 °C |
| CCCCn1c(=O)c2c(NC)n(C)nc2n(Cc2ccccc2)c1=O | 146 to 148 °C |
| Clc1ccc2nc(CN3CCC(c4ccccc4)CC3)cn2c1 | 132 to 133 °C |
| CC=Cc1cccc2c(=O)c(C)c(C(=O)O)oc12 | 224 to 228 °C |
| CCOC(=O)NC(=S)NCCOCC1=C(C(=O)OCC)C(c2cccc(Cl)c2Cl)C(C(=O)OC)=C(C)N1 (centres undefined) | 144 °C |
| Cc1oc(-c2ccccc2)nc1COc1cccc(CON=C(CCC(=O)O)c2ccccc2)c1 | 108 to 109 °C |
| COc1cc2c(cc1CNC1CCCNC1c1ccccc1)N(C)C(=O)CC2(C)C (centres undefined) | > 280 °C |
| C#CCN1CCC(N2C(=O)Nc3ccccc3C2c2ccccc2)CC1 (centres undefined) | 198 to 201 °C |
| CC#CCOc1cc(Cl)ncn1 | 43.5 °C |
| COc1ncc(F)c2nc(S(=O)(=O)Nc3c(F)cc(Cl)cc3F)nn12 | 203 to 204 °C |
| COc1cc(Nc2c(C#N)cnc3cc(I)sc23)cc(OC)c1OC | 254 to 256 °C |
| CSC1=C([N+](=O)[O-])CCCN1 | 230 to 232 °C |
| CCOC(=O)c1cc(-c2ccc(Cl)cc2Cl)c(-c2ccc(Cl)cc2)nc1C | 114 °C |
| CCc1nnc(-c2ccc(N)cc2)n1-c1ccc(OC)cc1 | 210 °C |
| COC(=O)Cn1cc2c(c1C)-c1ccc(Cl)cc1C(c1ccccc1Cl)=NC2 | 174 to 176 °C |
| C#CC(O)c1csc(C)n1 (centres undefined) | 94 °C |
| COC(=O)c1cccc(C=C2COc3ccc(OCc4ccccc4)cc3C2=O)c1 | 109 to 112 °C |
| Cc1cc(-c2cccc(NC(=O)C3CCC3)c2)n2ncc(C(=O)c3cccs3)c2n1 | 121 to 123 °C |
| CC[C@@H](c1ccccc1)N(Cc1ccc(C(=O)N2CCC[C@@H]2CO)cc1)S(=O)(=O)c1ccc(Cl)cc1 | 120 to 121 °C |

| Compound | melting point |
| --- | --- |
| CN(C)c1cccc(NC(=O)NC2C(=O)N(CC34CC5CC(CC(C5)C3)C4)c3ccccc3N(c3ccccc3)C2=O)c1 (centres undefined) | 263 to 265 °C |
| COc1cc(C(=O)NCCc2ccc(N)cc2)cc(OC)c1OC(C)=O | 178 to 180 °C |
| COc1cc(OCc2nc(-c3ccco3)oc2C)ccc1CO | 117 to 118 °C |
| CCCN1C(=O)C2C3CCC(O3)C2C1=O (centres undefined) | 79 to 80 °C |
| O=C(NCc1ccccc1C(F)(F)F)c1ccc2cnccc2n1 | 125 to 127 °C |
| CCC(=NO)c1ccc(Cl)cc1 | 56 to 57.5 °C |
| CCCN1CC(NS(=O)(=O)N(CC)CC)CC2c3cccc4[nH]cc(c34)CC21 (centres undefined) | 160 to 162 °C |
| CCC(c1cnc2c(C)c(NC(=O)c3ccc(-c4ccc(F)cc4)cc3)ccc2c1)N1CCCC1 (centres undefined) | 188 to 191 °C |
| O=C(O)c1cccc(-c2cccc3oc(Cc4ccc(F)c(F)c4)cc23)c1 | 194 to 195 °C |
| COc1ccc(C2=C(CC(C)N(CCO)C(C)C)C(=O)NCCC2)cc1 (centres undefined) | 109 to 111 °C |
| CCOC(=O)Nc1c(F)cc(Cl)c2nc(C(C)(C)C)oc12 | 127 to 129 °C |
| COc1oc(-c2ccc(NS(=O)(=O)c3sc4ccc(F)cc4c3C)c(S(C)(=O)=O)c2)nc1C | 232 to 233 °C |
| O=C(NCc1ccccc1)[C@@H]1CCCCN1 | 103 to 104 °C |
| CC(C)n1c(=O)nc(-c2ccccc2)c2cc3c(cc21)OCO3 | 189 to 190 °C |
| CN(CCC=C1c2ccccc2COc2ccccc21)CCCCCC(O)c1ccc(C(C)(C)C)cc1 (centres undefined) | 73 to 75 °C |
| COc1cc(C#N)ccc1OCCCN1CCC(c2noc3cc(F)ccc23)CC1 | 107 to 108 °C |
| O=C(O)C=CC(=O)c1ccccc1[N+](=O)[O-] | 153 to 158 °C |
| CC(C)OC(=O)c1cc(-n2c(=O)[nH]c3c(c2=O)CCC3)c(F)cc1F | 231 to 234 °C |
| CCCN(CCC)c1c(C#N)cnn1-c1ccc(Cl)c(Cl)c1Cl | 99 to 100 °C |
| CCOc1cc2c(Nc3cc(OC)c(Cl)cc3Cl)c(C#N)cnc2cc1OCCC1CCN(C)CC1 | 174 to 176 °C |
| COc1ccc(-c2c(Cl)c(CN3CCN(C(C)=O)CC3)nc3sc4c(c23)CCN(Cc2ccccc2)C4)cc1OC | 183 to 184 °C |
| CC12CCC(=O)C=C1CCC1C2CCC2(C)C1CCC2(O)C(=O)CCl (centres undefined) | 239 °C |
| COC1(OCCc2nc(C(C)C)c(Sc3cc(Cl)cc(Cl)c3)n2C)CCCCCCC1 | 54 to 56 °C |
| CN(C)c1ncc(-c2cc(Cl)cc(Cl)c2Cl)c(N)n1 | 145 to 147 °C |
| COc1cc2c(c(OC)c1OC)-c1cc(I)c(O)cc1[C@@H](NC(C)=O)CC2 | 210 °C |

| Compound | melting point |
| --- | --- |
| CC1(c2cccc(NS(C)(=O)=O)c2)C2CN(Cc3ccccc3)CC21 (centres undefined) | 117 to 118 °C |
| COc1cc(-c2cc(=O)c3ccc(OCC(O)CN4CCN(c5ccccc5)CC4)cc3o2)cc(OC)c1OC (centres undefined) | 170 to 171 °C |
| O=C1NC(=O)C(=Cc2ccc(OCCNc3nc4ccccc4o3)cc2)S1 | 242 to 245 °C |
| CN(C(=O)COc1nc(F)ns1)c1ccccc1 | 82 °C |
| CCc1ccc2c(=O)c(C(N)=O)cn(C)c2c1 | 255 to 256 °C |
| O=Cc1cc(C#Cc2ccccc2)c(C=O)cc1C#Cc1ccccc1 | 179 to 181 °C |
| O=C1OC(CN2CCC(n3c(=O)[nH]c4ccccc43)CC2)CN1c1ccccc1 (centres undefined) | 210 to 212 °C |
| O=C(NNc1ccc(NC(=S)NCc2ccccc2)cc1)c1ccc(F)cc1 | 186 to 188 °C |
| COC(=O)C(Cc1ccccc1)N1CC(N2C(=O)c3ccccc3C2=O)C1=O (centres undefined) | 153 to 156 °C |
| CS(=O)(=O)Nc1cc2occ(C=NO)c(=O)c2cc1Oc1ccccc1 | 199 to 200 °C |
| CC(C)CN(Cc1nc(-c2ncn3c2[C@@H]2CCN2C(=O)c2c(Cl)cccc2-3)no1)CC(C)C | 125 to 140 °C |
| O=C(O)c1ncc(Br)cc1Br | 170 to 171 °C |
| Cc1cccc(Cl)c1CNC(=O)C(C)Br (centres undefined) | 168 to 169 °C |
| COc1ccc(C2(C#Cc3cnc(N)nc3)CCC(O)CC2)cc1OC1CCCC1 (centres undefined) | 170 to 172 °C |
| CSc1ccccc1CNc1ncnc2c1sc1nc(N3CCCC3)c3c(c12)CC(C)(C)OC3 | 176 to 177 °C |
| CS(=O)(=O)c1ccc(NCC(O)CO)c([N+](=O)[O-])c1 (centres undefined) | 133 °C |
| COc1ccc(/C=N/Nc2cc(=O)[nH]c3cc(Cl)ccc23)cc1OC1CCCC1 | 210 to 212 °C |
| CNc1c(F)cc2c(=O)c(C(=O)O)cn(-c3nc(N)c(F)cc3F)c2c1F | 270 to 273 °C |
| NN1CCC[C@H]1C(=O)O | 153 to 154 °C |
| CC#CCOc1ccc(S(=O)(=O)N(C)CCC(=O)O)cc1 | 90 to 110 °C |
| O=C1C(=O)c2ccccc2C2=C1SCC1(CCN(C(=O)c3ccccc3I)CC1)O2 | 165 to 166 °C |
| COc1cccnc1CO | 72.5 to 73.5 °C |
| O=C1CCC2=C1C(c1ccc(F)c(Br)c1)C1=C(CCCCS1)N2 (centres undefined) | 210 °C |
| CCCOc1cccc(-c2ccnc(Nc3cc(OC)c(OC)c(OC)c3)n2)c1 | 107 °C |
